Assay results from patent US20260115250A1, “METHODS OF TREATING AGE-RELATED MACULAR DEGENERATION” (Character Biosciences, Inc., priority 2022, published 2026).
Ends that are not written are not given here. Peptide text beside a SMILES is read from it.

Key:
LDLR [1] = biological target: T1, LDLR (Homo sapiens, UniProt P01130); assay: KD, Peptide (μM)
Target sequence in this assay (P01130 22-860 limits assumed): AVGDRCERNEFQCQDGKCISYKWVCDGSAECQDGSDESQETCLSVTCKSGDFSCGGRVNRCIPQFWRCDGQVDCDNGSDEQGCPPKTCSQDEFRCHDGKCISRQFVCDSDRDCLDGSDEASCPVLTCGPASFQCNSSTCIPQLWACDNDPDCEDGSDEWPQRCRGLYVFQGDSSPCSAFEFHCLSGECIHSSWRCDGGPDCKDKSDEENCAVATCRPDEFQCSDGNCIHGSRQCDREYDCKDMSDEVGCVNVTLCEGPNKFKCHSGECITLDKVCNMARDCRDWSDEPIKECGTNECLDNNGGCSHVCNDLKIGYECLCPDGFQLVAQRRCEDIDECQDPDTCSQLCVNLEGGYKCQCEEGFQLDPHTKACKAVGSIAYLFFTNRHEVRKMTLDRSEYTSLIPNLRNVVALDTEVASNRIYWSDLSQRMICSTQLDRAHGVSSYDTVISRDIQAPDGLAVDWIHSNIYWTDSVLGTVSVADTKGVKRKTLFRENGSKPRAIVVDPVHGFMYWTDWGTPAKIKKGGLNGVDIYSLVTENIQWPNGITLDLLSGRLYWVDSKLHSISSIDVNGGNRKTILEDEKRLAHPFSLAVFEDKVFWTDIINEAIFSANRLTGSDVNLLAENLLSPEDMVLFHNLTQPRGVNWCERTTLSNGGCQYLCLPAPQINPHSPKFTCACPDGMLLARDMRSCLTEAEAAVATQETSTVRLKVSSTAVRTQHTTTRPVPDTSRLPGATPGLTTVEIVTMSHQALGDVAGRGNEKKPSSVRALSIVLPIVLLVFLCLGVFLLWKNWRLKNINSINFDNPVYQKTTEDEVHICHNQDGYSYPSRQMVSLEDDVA
From the text: Title: Buffer: HBS + 0.005% P20
Head of the field: KD, Peptide (μM)
First copying reader's note: KD values are for binding to LDLR by SPR, peptide alone versus peptide:DMPC lipid complex; the table continues on FIG. 24B.

LDLR [2] = biological target: T1, LDLR; assay: LDLR binding (SPR), high surfactant preparation; conditions: high surfactant preparation (HBS-P+), 1:1 binding model; read-out: binding KD to LDLR
Outline: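 Surface plasmon resonance with recombinant LDLR amine-coupled to a CM5 chip at 1000 RU. Peptides, 5 μM top concentration then 1:3 dilutions (5 levels) in HBS-P+ with 1 mM CaCl2, injected 120 seconds at 30 μL/sec; multi-cycle kinetics fitted to a 1:1 binding model.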
Target sequence in this assay (P01130 22-860): as the sequence (P01130 22-860 limits assumed) above

LDLR [3] = biological target: T1, LDLR; assay: KD (µM)
From the text: First copying reader's note: Left of three side-by-side panels of FIG. 23; the KD cells hold value ± error together. Where the first naming reader finds the target: description_of_the_figure: FIG. 23 is a table showing the binding kinetics results of LDLR binding assays (SPR)
Target sequence in this assay (P01130 22-860 limits assumed): as above

ARPE-19 cells = assay: ARPE-19 cell viability assay (Cell Titer Glo); assay type: cell-based, human; conditions: 100 μM peptide, 1.5 hours
Description: ARPE-19 cells were seeded in 96-well plates at 25,000 cells/well and allowed to adhere to the plate surface for at least 24 hours. Peptides were diluted in serum-free DMEM: F12 to a final concentration of 100 μM. Cells were washed, then incubated in 100 μM peptide solution for 1.5 hours at 37° C. Plates were brought to room temperature for 30 minutes, then washed with DPBS. Cells were incubated in a 1:1 mixture of DPBS and Cell Titer Glo 2.0 Reagent for 10 minutes at room temperature, then cell luminescence was read on a plate reader. Viability values were background corrected, and 0% viability is determined by luminescence values of cells treated with 1% Triton-X-100. Data are presented as mean+SD over two separate runs.

Molecule	Kd (LDLR [1]) [µM]	Kd (LDLR [2]) [µM]	Kd (LDLR [3]) [µM]	ARPE-19 cell viability (ARPE-19 cells)
CC(C)C[C@H](NC(=O)[C@H](CCCNC(=N)N)NC(=O)[C@H](CC(=O)O)NC(=O)[C@H](CCC(N)=O)NC(=O)[C@H](CC(C)C)NC(=O)[C@H](CCCCN)NC(=O)[C@H](CC(=O)O)NC(=O)CNC(=O)[C@H](CC(=O)O)NC(=O)[C@H](CCCNC(=N)N)NC(=O)[C@H](CC(C)C)NC(=O)[C@H](CC(C)C)NC(=O)[C@H](CCCNC(=N)N)NC(=O)[C@H](CCCCN)NC(=O)[C@H](CCCNC(=N)N)NC(=O)[C@H](CC(C)C)NC(=O)[C@H](CCCCN)NC(=O)[C@H](CCCNC(=N)N)NC(=O)[C@H](CC(C)C)NC(=O)[C@H](Cc1c[nH]cn1)NC(=O)[C@H](CO)NC(=O)[C@H](C)NC(=O)[C@@H](N)CC(C)C)C(=O)N[C@@H](C)C(=O)N[C@@H](CCC(=O)O)C(=O)N[C@@H](Cc1ccc(O)cc1)C(=O)N[C@@H](CCC(N)=O)C(=O)N[C@@H](C)C(=O)N[C@@H](CCCNC(=N)N)C(=O)N[C@@H](C)C(=O)N[C@@H](CCCCN)C(=O)N[C@@H](CCC(=O)O)C(=O)N[C@@H](C)C(=O)N[C@@H](Cc1ccccc1)C(=O)N[C@@H](CC(=O)O)C(=O)N[C@@H](CCCNC(=N)N)C(=O)O [T-048]	11.4 ± 5.29	< 10	–	–
CC(C)C[C@H](NC(=O)[C@H](CCCNC(=N)N)NC(=O)[C@H](CC(=O)O)NC(=O)[C@H](CCC(N)=O)NC(=O)[C@H](CC(C)C)NC(=O)[C@H](CCCCN)NC(=O)[C@H](CC(=O)O)NC(=O)[C@H](C)NC(=O)[C@H](CC(=O)O)NC(=O)[C@H](CCCNC(=N)N)NC(=O)[C@H](CC(C)C)NC(=O)[C@H](CC(C)C)NC(=O)[C@H](CCCNC(=N)N)NC(=O)[C@H](CCCCN)NC(=O)[C@H](CCCNC(=N)N)NC(=O)[C@H](CC(C)C)NC(=O)[C@H](CCCCN)NC(=O)[C@H](CCCNC(=N)N)NC(=O)[C@H](CC(C)C)NC(=O)[C@@H](N)Cc1c[nH]cn1)C(=O)N[C@@H](C)C(=O)N[C@@H](CCC(=O)O)C(=O)N[C@@H](Cc1ccc(O)cc1)C(=O)N[C@@H](CCC(N)=O)C(=O)N[C@@H](C)C(=O)N[C@@H](CCCNC(=N)N)C(=O)N[C@@H](C)C(=O)N[C@@H](CCCCN)C(=O)N[C@@H](CCC(=O)O)C(=O)N[C@@H](C)C(=O)N[C@@H](Cc1ccccc1)C(=O)N[C@@H](CC(=O)O)C(=O)N[C@@H](CCCNC(=N)N)C(=O)O [T-050] (H-HLRKLRKRLLRDADKLQDRLAEYQARAKEAFDR-OH; N-terminus and C-terminus assumed)	–	–	528.5 ± 0.71	–
CC(C)C[C@H](NC(=O)[C@H](CCCNC(=N)N)NC(=O)[C@H](CCCCN)NC(=O)[C@H](CCC(N)=O)NC(=O)[C@H](CC(C)C)NC(=O)[C@H](CC(=O)O)NC(=O)[C@H](CC(=O)O)NC(=O)[C@H](C)NC(=O)[C@H](CC(=O)O)NC(=O)[C@H](CCCNC(=N)N)NC(=O)[C@H](C)NC(=O)[C@H](CC(C)C)NC(=O)[C@H](CCCNC(=N)N)NC(=O)[C@H](CCCCN)NC(=O)[C@H](CCCNC(=N)N)NC(=O)[C@H](CC(C)C)NC(=O)[C@H](CCCCN)NC(=O)[C@H](CCCNC(=N)N)NC(=O)[C@H](CC(C)C)NC(=O)[C@H](Cc1c[nH]cn1)NC(=O)[C@H](CCCNC(=N)N)NC(=O)[C@H](C)NC(=O)[C@@H](N)CC(C)C)C(=O)N[C@@H](C)C(=O)N[C@H](C(=O)N[C@@H](Cc1ccc(O)cc1)C(=O)N[C@@H](CCC(N)=O)C(=O)N[C@@H](C)C(=O)NCC(=O)N[C@@H](C)C(=O)N[C@@H](CCCNC(=N)N)C(=O)N[C@@H](CCC(=O)O)C(=O)NCC(=O)N[C@@H](C)C(=O)N[C@@H](CCC(=O)O)C(=O)N[C@@H](CCCNC(=N)N)C(=O)O)C(C)C [T-047] (H-LARHLRKLRKRLARDADDLQKRLAVYQAGAREGAER-OH)	–	< 10	3.26 ± 0.23	–
CC(C)C[C@H](NC(=O)[C@H](CCCNC(=N)N)NC(=O)[C@H](CC(=O)O)NC(=O)[C@H](CCC(N)=O)NC(=O)[C@H](CC(C)C)NC(=O)[C@H](CCCCN)NC(=O)[C@H](CC(=O)O)NC(=O)CNC(=O)[C@H](CC(=O)O)NC(=O)[C@H](CCCNC(=N)N)NC(=O)[C@H](C)NC(=O)[C@H](CC(C)C)NC(=O)[C@H](CCCNC(=N)N)NC(=O)[C@H](CCCCN)NC(=O)[C@H](CCCNC(=N)N)NC(=O)[C@H](CC(C)C)NC(=O)[C@H](CCCCN)NC(=O)[C@H](CCCNC(=N)N)NC(=O)[C@H](CC(C)C)NC(=O)[C@H](Cc1c[nH]cn1)NC(=O)[C@H](CCCNC(=N)N)NC(=O)[C@H](C)NC(=O)[C@@H](N)CC(C)C)C(=O)N[C@@H](C)C(=O)N[C@@H](CCC(=O)O)C(=O)N[C@@H](Cc1ccc(O)cc1)C(=O)N[C@@H](CCC(N)=O)C(=O)N[C@@H](C)C(=O)N[C@@H](CCCNC(=N)N)C(=O)N[C@@H](C)C(=O)N[C@@H](CCCCN)C(=O)N[C@@H](CCC(=O)O)C(=O)N[C@@H](C)C(=O)N[C@@H](Cc1ccccc1)C(=O)N[C@@H](CC(=O)O)C(=O)N[C@@H](CCCNC(=N)N)C(=O)O [T-049] (H-LARHLRKLRKRLARDGDKLQDRLAEYQARAKEAFDR-OH)	–	< 10	3.26 ± 0.2	–
CC(C)C[C@H](NC(=O)[C@H](CCCNC(=N)N)NC(=O)[C@H](CC(=O)O)NC(=O)[C@H](CCC(N)=O)NC(=O)[C@H](CC(C)C)NC(=O)[C@H](CCCCN)NC(=O)[C@H](CC(=O)O)NC(=O)CNC(=O)[C@H](CC(=O)O)NC(=O)[C@H](CCCNC(=N)N)NC(=O)[C@H](CC(C)C)NC(=O)[C@H](CC(C)C)NC(=O)[C@H](CCCNC(=N)N)NC(=O)[C@H](CCCCN)NC(=O)[C@H](CCCNC(=N)N)NC(=O)[C@H](CC(C)C)NC(=O)[C@H](CCCCN)NC(=O)[C@H](CCCNC(=N)N)NC(=O)[C@H](CC(C)C)NC(=O)[C@@H](N)Cc1c[nH]cn1)C(=O)N[C@@H](C)C(=O)N[C@H](C(=O)N[C@@H](Cc1ccc(O)cc1)C(=O)N[C@@H](CCC(N)=O)C(=O)N[C@@H](C)C(=O)N[C@@H](CCCNC(=N)N)C(=O)N[C@@H](C)C(=O)N[C@@H](CCCCN)C(=O)N[C@@H](CCC(=O)O)C(=O)N[C@@H](C)C(=O)N[C@@H](Cc1ccccc1)C(=O)N[C@@H](CC(=O)O)C(=O)N[C@@H](CCCNC(=N)N)C(=O)O)C(C)C [T-053] (H-HLRKLRKRLLRDGDKLQDRLAVYQARAKEAFDR-OH; N-terminus and C-terminus assumed)	43000 ± 34000	–	121 ± 14.9	–
LVQYRGEVQAMLGQSTEELRVRLASHLRKLRKRLLRDADDLQ [T-071]	18.5 ± 2.69	–	–	–
CC(C)C[C@H](NC(=O)[C@H](CCCNC(=N)N)NC(=O)[C@H](CC(=O)O)NC(=O)[C@H](Cc1ccc(O)cc1)NC(=O)[C@H](CC(C)C)NC(=O)[C@H](CCCCN)NC(=O)[C@H](CC(=O)O)NC(=O)CNC(=O)[C@H](CC(=O)O)NC(=O)[C@H](CCCNC(=N)N)NC(=O)[C@H](CC(C)C)NC(=O)[C@H](CC(C)C)NC(=O)[C@H](CCCNC(=N)N)NC(=O)[C@H](CCCCN)NC(=O)[C@H](CCCNC(=N)N)NC(=O)[C@H](CC(C)C)NC(=O)[C@H](CCCCN)NC(=O)[C@H](CCCNC(=N)N)NC(=O)[C@H](CC(C)C)NC(=O)[C@@H](N)Cc1c[nH]cn1)C(=O)N[C@@H](C)C(=O)N[C@@H](CCC(=O)O)C(=O)N[C@@H](Cc1ccc(O)cc1)C(=O)N[C@@H](Cc1ccc(O)cc1)C(=O)N[C@@H](C)C(=O)N[C@@H](CCCNC(=N)N)C(=O)N[C@@H](C)C(=O)N[C@@H](CCCCN)C(=O)N[C@@H](CCC(=O)O)C(=O)N[C@@H](C)C(=O)N[C@@H](Cc1ccccc1)C(=O)N[C@@H](CC(=O)O)C(=O)N[C@@H](CCCNC(=N)N)C(=O)O [T-062] (H-HLRKLRKRLLRDGDKLYDRLAEYYARAKEAFDR-OH)	–	< 10	–	substantial change in viability
